# Measured values published in US20130302442A1, “METHODS OF USING (4S,4AS,5AR,12AS)-4-DIMETHYLAMINO-3,10,12,12A-TETRAHYDROXY-7-[(METHOXY(METHYL)AMINO)-METHYL]-1,11-DIOXO-1,4,4A,5,5A,6,11,12A-OCTAHYDRO-NAPHTHACENE-2-CARBOXYLIC ACID AMIDE” (priority 2012, published 2013).
# Where two headings read alike, the source gives them in different places.
# Tests used:
# Veillonella parvula = test: In vitro MIC testing against anaerobic bacteria; assay type: cell-based; conditions: ATCC17745; Veillonella parvula 1272, ATCC 17745
# [1] = tested on: Porphyromonas asaccharolytica; test: In vitro MIC testing against anaerobic bacteria; assay type: cell-based
# P. avidum = test: In vitro MIC testing, antibacterial spectrum of activity; assay type: cell-based; conditions: P. avidum [clinical isolates] (4 isolates)
# Lactobacillus casei = test: In vitro MIC testing against anaerobic bacteria; assay type: cell-based; conditions: Lacticaseibacillus casei, ATCC393; Lactobacillus casei 1722, ATCC 393
# S. pneumoniae = test: In vitro MIC testing, antibacterial spectrum of activity; assay type: cell-based, Streptococcus pneumoniae
# [2] = tested on: Peptostreptococcus micros; test: In vitro MIC testing against anaerobic bacteria; assay type: cell-based; conditions: Parvimonas micra
# E. faecalis = test: In vitro MIC testing, antibacterial spectrum of activity; assay type: cell-based
# P. granulosum = test: as above; assay type: cell-based; conditions: P. granulosum [clinical isolates] (3 isolates)
# Bifidobacterium bifidum = test: In vitro MIC testing against anaerobic bacteria; assay type: cell-based; conditions: ATCC15696; Bifidobacterium bifidum 3965, ATCC 15696
# S. agalactiae = test: In vitro MIC testing, antibacterial spectrum of activity; assay type: cell-based
# E. faecium = test: as above; assay type: cell-based; conditions: for MIC / MIC50 / MIC90: Enterococcus faecium; for MIC50: read-out: MIC50; for MIC90: read-out: MIC90
# S. haemolyticus = test: as above; assay type: cell-based; conditions: S. haemolyticus (33 isolates)
# [3] = tested on: Streptococcus intermedius; test: In vitro MIC testing against anaerobic bacteria; assay type: cell-based; conditions: ATCC27335; Streptococcus intermedius 1203, ATCC 27335
# Bifidobacterium brevi = test: In vitro MIC testing against anaerobic bacteria; assay type: cell-based; conditions: ATCC15698; Bifidobacterium brevi 3967, ATCC 15698
# [4] = tested on: Streptococcus spp. [Group C]; test: In vitro MIC testing, antibacterial spectrum of activity; assay type: cell-based; conditions: Streptococcus spp. [Group C] (30 isolates)
# S. pyogenes = test: as above; assay type: cell-based
# Lactobacillus plantarum = test: In vitro MIC testing against anaerobic bacteria; assay type: cell-based; conditions: Lactiplantibacillus plantarum, ATCC39268; Lactobacillus plantarum 2791, ATCC 39268
# Eikenella corrodens = test: In vitro MIC testing against anaerobic bacteria; assay type: cell-based; conditions: ATCC43278; Eikenella corrodens 1206, ATCC 43278; read-out: MIC
# [5] = tested on: Fusobacterium necrophorum; test: In vitro MIC testing against anaerobic bacteria; assay type: cell-based; conditions: Fusobacterium necrophorum, ATCC25286
# S. epidermidis = test: In vitro MIC testing, antibacterial spectrum of activity; assay type: cell-based, Staphylococcus epidermidis; conditions: for MIC50 / MIC90: Staphylococcus epidermidis; for MIC50: read-out: MIC50; for MIC90: read-out: MIC90
# Clostridium perfringens = test: microbe, parasite or virus in culture; assay type: cell-based
# Bifidobacterium longum = test: In vitro MIC testing against anaerobic bacteria; assay type: cell-based; conditions: ATCC15707; Bifidobacterium longum 3968, ATCC 15707
# Bifidobacterium infantis = test: In vitro MIC testing against anaerobic bacteria; assay type: cell-based; conditions: ATCC15702; Bifidobacterium infantis 3966, ATCC 15702
# Clostridium difficile = test: In vitro MIC testing against anaerobic bacteria; assay type: cell-based
# Bacteroides vulgatus = test: In vitro MIC testing against anaerobic bacteria; assay type: cell-based
# Fusobacterium nucleatum = test: In vitro MIC testing against anaerobic bacteria; assay type: cell-based; conditions: Fusobacterium nucleatum, ATCC25586
# [6] = tested on: Prevotella melaninogenica; test: In vitro MIC testing against anaerobic bacteria; assay type: cell-based
# K. pneumoniae = test: In vitro MIC testing, antibacterial spectrum of activity; assay type: cell-based
# [7] = tested on: Bacteroides thetaiotaomicron; test: In vitro MIC testing against anaerobic bacteria; assay type: cell-based
# E. coli = test: In vitro MIC testing, antibacterial spectrum of activity; assay type: cell-based; conditions: Escherichia coli
# [8] = tested on: Lactobacillus acidophilus; test: In vitro MIC testing against anaerobic bacteria; assay type: cell-based; conditions: Lactobacillus acidophilus 0681
# [9] = S. epidermidis [MRSE] (32 isolates)
# [10] = S. epidermidis [MSSE] (31 isolates)
# [11] = Klebsiella pneumoniae, K. pneumoniae (31 isolates)
compound,measurement,setting,value
"CON(C)Cc1ccc(O)c2c1C[C@H]1C[C@H]3[C@H](N(C)C)C(O)=C(C(N)=O)C(=O)[C@@]3(O)C(O)=C1C2=O [The Active, (4S,4aS,5aR,12aS)-4-dimethylamino-3,10,12,12a-tetrahydroxy-7-[(methoxy(methyl)amino)-methyl]-1,11-dioxo-1,4,4a,5,5a,6,11,12a-octahydro-naphthacene-2-carboxylic acid amide]",MIC,Veillonella parvula,4 µg/mL
same,MIC,[1],16 µg/mL
same,MIC,"[1]; Porphyromonas asaccharolytica 3557, read-out: MIC",8 µg/mL
same,MIC Range,P. avidum,1 to 4 µg/mL
same,MIC,Lactobacillus casei,2 µg/mL
same,MIC Range,S. pneumoniae; S. pneumoniae [PSSP] (32 isolates),≦0.03-32 μg/mL
same,MIC Range,S. pneumoniae; S. pneumoniae [tetR] (5 isolates),4 to 32 µg/mL
same,MIC Range,S. pneumoniae; S. pneumoniae [tetS] (5 isolates),≦0.06-0.125 μg/mL
same,MIC50,"S. pneumoniae; Streptococcus pneumoniae, S. pneumoniae [PSSP] (32 isolates), read-out: MIC50",0.12 µg/mL
same,MIC90,"S. pneumoniae; Streptococcus pneumoniae, S. pneumoniae [PSSP] (32 isolates), read-out: MIC90",0.25 µg/mL
same,MIC,"S. pneumoniae; Streptococcus pneumoniae, S. pneumoniae strain PBS # 511, tetM",4 µg/mL
same,MIC,[2],0.25 µg/mL
same,MIC,"[2]; Peptostreptococcus micros 3545, read-out: MIC",1 µg/mL
same,MIC Range,E. faecalis; E. faecalis [VSE] (31 isolates),0.25 to 32 µg/mL
same,MIC Range,E. faecalis; E. faecalis [tetR] (6 isolates),8 to 32 µg/mL
same,MIC,"E. faecalis; Enterococcus faecalis, E. faecalis strain PBS # 274, tetL",32 µg/mL
same,MIC,"E. faecalis; Enterococcus faecalis, E. faecalis strain PBS # 276, tetM",16 µg/mL
same,MIC,"E. faecalis; Enterococcus faecalis, E. faecalis strain PBS # 949, tetS",8 µg/mL
same,MIC50,"E. faecalis; Enterococcus faecalis, E. faecalis [VSE] (31 isolates), read-out: MIC50",32 µg/mL
same,MIC90,"E. faecalis; Enterococcus faecalis, E. faecalis [VSE] (31 isolates), read-out: MIC90",32 µg/mL
same,MIC Range,P. granulosum,1-1 μg/mL
same,MIC,Bifidobacterium bifidum,1 µg/mL
same,MIC Range,S. agalactiae; S. agalactiae (31 isolates),0.12 to 32 µg/mL
same,MIC Range,S. agalactiae; S. agalactiae [tetR] (7 isolates),16 to 32 µg/mL
same,MIC Range,S. agalactiae; S. agalactiae [tetS] (3 isolates),0.125 to 0.25 µg/mL
same,MIC,"S. agalactiae; Streptococcus agalactiae, S. agalactiae strain PBS # 316, tetO",32 µg/mL
same,MIC,"S. agalactiae; Streptococcus agalactiae, S. agalactiae strain PBS # 897, tetM",16 µg/mL
same,MIC90,"S. agalactiae; Streptococcus agalactiae, S. agalactiae (31 isolates), read-out: MIC90",16 µg/mL
same,MIC Range,E. faecium; E. faecium [VRE] (30 isolates),0.12 to 32 µg/mL
same,MIC Range,E. faecium; E. faecium [VSE] (32 isolates),0.12 to 32 µg/mL
same,MIC Range,E. faecium; E. faecium [tetR] (6 isolates),8 to 32 µg/mL
same,MIC,"E. faecium; E. faecium strain PBS # 965, tetM",8 µg/mL
same,MIC,"E. faecium; E. faecium strain PBS # 1323, tetK",8 µg/mL
same,MIC,"E. faecium; E. faecium strain PBS # 1324, tetO",16 µg/mL
same,MIC50,E. faecium; E. faecium [VRE] (30 isolates),2 µg/mL
same,MIC90,E. faecium; E. faecium [VRE] (30 isolates),32 µg/mL
same,MIC50,E. faecium; E. faecium [VSE] (32 isolates),0.5 µg/mL
same,MIC90,E. faecium; E. faecium [VSE] (32 isolates),32 µg/mL
same,MIC Range,S. haemolyticus,0.12 to 2 µg/mL
same,MIC50,"S. haemolyticus; Staphylococcus haemolyticus, read-out: MIC50",0.12 µg/mL
same,MIC90,"S. haemolyticus; Staphylococcus haemolyticus, read-out: MIC90",2 µg/mL
same,MIC,[3],1 µg/mL
same,MIC,Bifidobacterium brevi,1 µg/mL
same,MIC Range,[4],0.12 to 16 µg/mL
same,MIC50,[4]; read-out: MIC50,0.25 µg/mL
same,MIC90,[4]; read-out: MIC90,16 µg/mL
same,MIC Range,S. pyogenes; S. pyogenes (32 isolates),0.12 to 16 µg/mL
same,MIC Range,S. pyogenes; S. pyogenes [tetR] (5 isolates),4 to 16 µg/mL
same,MIC Range,S. pyogenes; S. pyogenes [tetS] (5 isolates),≦0.06-0.25 μg/mL
same,MIC,"S. pyogenes; Streptococcus pyogenes, S. pyogenes strain PBS # 330, tetO",16 µg/mL
same,MIC,"S. pyogenes; Streptococcus pyogenes, S. pyogenes strain PBS # 792, tetM",4 µg/mL
same,MIC50,"S. pyogenes; Streptococcus pyogenes, S. pyogenes (32 isolates), read-out: MIC50",0.12 µg/mL
same,MIC90,"S. pyogenes; Streptococcus pyogenes, S. pyogenes (32 isolates), read-out: MIC90",8 µg/mL
same,MIC,Lactobacillus plantarum,2 µg/mL
same,MIC,Eikenella corrodens,1 µg/mL
same,MIC,[5],0.25 µg/mL
same,MIC Range,S. epidermidis; [9],0.25 to 2 µg/mL
same,MIC Range,S. epidermidis; [10],0.12 to 2 µg/mL
same,MIC50,S. epidermidis; [9],0.5 µg/mL
same,MIC90,S. epidermidis; [9],2 µg/mL
same,MIC50,S. epidermidis; [10],0.25 µg/mL
same,MIC90,S. epidermidis; [10],2 µg/mL
same,MIC,Clostridium perfringens,16 µg/mL
same,MIC,"Clostridium perfringens; read-out: MIC, high MIC values",> 16 µg/mL
same,MIC,Bifidobacterium longum,4 µg/mL
same,MIC,Bifidobacterium infantis,0.5 µg/mL
same,MIC,Clostridium difficile; Clostridioides difficile,0.12 µg/mL
same,MIC,Clostridium difficile; Clostridium difficile 3584,0.12 µg/mL
same,MIC,Bacteroides vulgatus; Bacteroides vulgatus 3494,16 µg/mL
same,MIC,Bacteroides vulgatus; Phocaeicola vulgatus,16 µg/mL
same,MIC,Fusobacterium nucleatum,0.25 µg/mL
same,MIC,"[6]; Prevotella melaninogenica 3437, read-out: MIC",32 µg/mL
same,MIC,"[6]; Prevotella melaninogenica 3443, read-out: MIC",4 µg/mL
same,MIC Range,K. pneumoniae; K. pneumoniae [tetS] (7 isolates),16 to 64 µg/mL
same,MIC50,K. pneumoniae; [11],> 64 µg/mL
same,MIC90,K. pneumoniae; [11],> 64 µg/mL
same,MIC,"K. pneumoniae; Klebsiella pneumoniae, K. pneumoniae strain PBS # 266, tetD",> 64 µg/mL
same,MIC,[7]; Bacteroides thetaiotaomicron 3399,0.25 µg/mL
same,MIC,[7]; Bacteroides thetaiotaomicron 3496,16 µg/mL
same,MIC,E. coli,> 64 µg/mL
same,MIC90,E. coli,> 64 µg/mL
same,MIC,[8],4 µg/mL
